According to patent US20050282818A1, “Ubiquitin ligase inhibitors” (Rigel Pharmaceuticals, Inc., priority 2004, published 2005):
pIC50: −log10 of the molar value. Where two headings read alike, the source gives them in different places.

Assays:
H1299 cells = assay: Cell proliferation PAD assay, H1299; type: cell-based; conditions: Homo sapiens, 48 hours
In short: (§1)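 Cells plated at 2,000/well; compounds added 24 h later as 6.3-fold dilutions from a 10 mM master stock, diluted 500-fold into wells, in duplicate. After 48 h at 37 °C, 5% CO2, cells were formamide-fixed, DAPI-stained and imaged to count live, apoptotic and dead cells.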

A549 cells = assay: Cell proliferation PAD assay, A549; type: cell-based; conditions: Homo sapiens, 48 hours
In short: as §1

TRAF6/Uev1A/Ubc13 = molecular target: T1, TRAF6/Uev1A/Ubc13 (Homo sapiens, UniProt Q9Y4K3); assay: TRAF6/Uev1A/Ubc13 plate-based ubiquitin ligase assay; type: biochemical
T1 sequence (Q9Y4K3 1-522): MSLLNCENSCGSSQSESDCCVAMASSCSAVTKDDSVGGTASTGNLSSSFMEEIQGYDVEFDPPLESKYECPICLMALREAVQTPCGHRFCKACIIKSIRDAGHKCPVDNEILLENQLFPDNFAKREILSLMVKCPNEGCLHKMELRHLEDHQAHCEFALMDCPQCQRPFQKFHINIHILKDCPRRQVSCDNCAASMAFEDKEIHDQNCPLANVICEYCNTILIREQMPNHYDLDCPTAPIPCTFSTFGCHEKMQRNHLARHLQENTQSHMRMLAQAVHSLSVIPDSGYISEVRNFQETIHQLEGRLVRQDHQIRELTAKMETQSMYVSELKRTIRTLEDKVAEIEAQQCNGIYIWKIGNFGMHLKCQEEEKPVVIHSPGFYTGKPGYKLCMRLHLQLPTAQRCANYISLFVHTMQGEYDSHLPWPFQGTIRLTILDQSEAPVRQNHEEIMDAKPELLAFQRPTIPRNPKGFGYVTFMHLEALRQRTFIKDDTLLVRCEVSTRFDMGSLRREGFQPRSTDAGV
In short: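 Ligase activity was read as luminescence from anti-Flag/HRP detection of Flag-ubiquitin bound to casein-blocked Ni-plates alongside His-ubiquitin after a 1 h room-temperature reaction. Buffer: 62.5 mM Tris pH 7.5, 6.25 mM MgCl2, 1.0 mM DTT, 2 μM ATP; E1, Uev1a/Ubc13 and TRAF6 added last to start. IC50s derived across compound concentrations.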

[1] = NCI-H1299, 3pt, read-out: H1299 3pt

pIC50 (H1299 cells; NCI-H1299, 6pt, read-out: H1299 6pt)	pIC50 (A549 cells; 6pt, read-out: A549 6pt)	Compound	pIC50 (H1299 cells; [1])	pIC50 (A549 cells; 3pt, read-out: A549 3pt)	pIC50 (TRAF6/Uev1A/Ubc13)
≤ 4.70	≤ 4.70	N#Cc1cccnc1N1CCN(S(=O)(=O)c2ccc(Cl)c3nonc23)CC1 [compound 170, 2-{4-[(7-chloro-2,1,3-benzoxadiazol-4-yl)sulfonyl]piperazin-1-yl}nicotinomtrile]	4.70 to 6.00	4.70 to 6.00	4.70 to 6.00
–	–	O=C(c1ccc(F)cc1)C1CCN(c2ccc([N+](=O)[O-])c3nonc23)CC1 [compound 142, (4-fluorophenyl)[1-(7-nitro-2,1,3-benzoxadiazol-4-yl)piperidin-4-yl]methanone]	≤ 4.70	≤ 4.70	4.70 to 6.00
